The values that follow come from patent US20260274814A1, “THIENYL COMPOUNDS FOR THE TREATMENT OF A CENTRAL NERVOUS SYSTEM DISEASE OR DISORDER” (Coreterra Therapeutics, Inc., priority 2023, published 2026).

In the test the test system is mice. Briefly: Neuropharmacological Assay (SmartCube): automated behavioral signature of compound-treated mice compared with a database of reference drug classes. The test is classed as in vivo. The note with it: for minimal effective dose: Mus musculus, ip, read-out: MED. The gist of the method:
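Mice dosed i.p. 15 min before SmartCube testing, with compound in N-methyl-2-pyrrolidone/polyethylene glycol/propylene glycol. Video-captured behaviour is compared with a reference-drug signature database to give per-class probabilities, reported at 3.0 mg/kg. MED, from doses usually 0.3–10 mg/kg, is the lowest dose giving ≥45% total activity.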

Setting [1] is: minimal effective dose: dose having 45% or more total activity in SmartCube, i.p., if only one dose was tested, that dose is shown.
Where [2] appears, read: SmartCube probability class, 3.0 mg/kg dose, i.p. 15 min before the behavioral test.
Where [3] appears, read: SmartCube probability class, 3.0 mg/kg dose, i.p. 15 min before the behavioral test, hydrochloride, 3 mg/kg.
Setting [4] is: minimal effective dose: dose having 45% or more total activity in SmartCube, i.p., if only one dose tested, that dose is shown.
Setting [5] is: SmartCube class probability, 3.0 mg/kg i.p., 15 min before test.
Setting [6] is: SmartCube class probability, 3.0 mg/kg i.p., 15 min before test, hydrochloride, 3 mg/kg.

SMILES strings stand for the structures. Structures can show the parent of a compound that is named as a salt. Where two headings read alike, the source gives them in different places. Bounds are passed on as bounds.

For `CNC1COc2c(C)csc2C1` (single isomer, unassigned) [Compound 297, N, 3-dimethyl-6,7-dihydro-5H-thieno[3,2-b]pyran-6-amine hydrochloride], under setting [1], the minimal effective dose turned out to be 3 mg/kg. Also, under setting [2], the AD result is reported as “ND (^ <4%)”, the AG entry is “ND (^ <4%)”, the AN entry was “ND (^ <4%)” and the AP result is recorded as “ND (^ <4%)”. Besides, under setting [2], the CE entry is given as “ND (^ <4%)”, the HL entry was “ND (^ <4%)”, the MS entry is reported as “ND (^ <4%)” and the PS entry was “ND (^ <4%)”. In addition, under setting [2], the SH result is on record as “ND (^ <4%)” and the UK entry is on record as “ND (^ <4%)”. In addition, the AX result under setting [3] was “ND (^ <4%)”.

Regarding `CCc1csc2c1CC(N)CC2` (stereo not drawn) [Compound 208, 3-ethyl-4,5,6,7-tetrahydrobenzothiophen-5-amine hydrochloride], under setting [4], the minimal effective dose was greater than 3 mg/kg. Also, under setting [5], the AD entry is on record as “ND (^ <4%)”, the AG result is recorded as “ND (^ <4%)”, the AN result is recorded as “ND (^ <4%)” and the AP result was “ND (^ <4%)”. Under setting [5], the AX entry is “ND (^ <4%)”, the CE entry was “ND (^ <4%)”, the HL entry was “ND (^ <4%)” and the MS entry is reported as “ND (^ <4%)”. In addition, under setting [5], the PS entry is “ND (^ <4%)”, the SH result is given as “ND (^ <4%)” and the UK result is “+ (≥4%)”.

As for `CC1(N2CCCC2)CCc2sccc2C1.Cl` (single isomer, unassigned) [Compound 283, 1-(5-methyl-4,5,6,7-tetrahydrobenzo[b]thiophen-5-yl)pyrrolidine hydrochloride], under setting [1], the minimal effective dose was 3 mg/kg. Besides, under setting [2], the AD result is given as “ND (^ <4%)”, the AG entry is on record as “ND (^ <4%)”, the AN result is “ND (^ <4%)” and the AP result is recorded as “ND (^ <4%)”. For the same molecule, under setting [2], the AX entry was “ND (^ <4%)”, the CE entry is reported as “ND (^ <4%)”, the HL entry is reported as “ND (^ <4%)” and the MS result was “ND (^ <4%)”. For the same molecule, under setting [2], the PS entry was “ND (^ <4%)” and the SH result is on record as “ND (^ <4%)”. Also, the UK entry under setting [3] was “+ (≥4%)”.

`CNC1CCc2sc(C)cc2C1` (single isomer, unassigned) [Compound 224, N, 2-dimethyl-4,5,6,7-tetrahydrobenzothiophen-5-amine hydrochloride]: under setting [5], the AD result was “ND (^ <4%)”, the AG result was “ND (^ <4%)”, the AN result is reported as “ND (^ <4%)” and the AX entry is reported as “ND (^ <4%)”. Moreover, under setting [5], the CE entry is on record as “ND (^ <4%)”, the HL result is “ND (^ <4%)”, the MS entry is recorded as “ND (^ <4%)” and the PS result is reported as “ND (^ <4%)”. Further, the SH entry under setting [5] is recorded as “ND (^ <4%)”. Under setting [6], the AP result is “++++ (≥74%)” and the UK entry was “ND (^ <4%)”. This molecule came in with an MED (minimal effective dose: dose having 45% or more total activity in SmartCube, i.p., if only one dose tested, that dose is shown, hydrochloride) of 3 mpk.

Consider `CNC1CCc2sc(F)c(C)c2C1` (stereo not drawn) [Compound 142, 2-fluoro-N, 3-dimethyl-4,5,6,7-tetrahydrobenzothiophen-5-amine hydrochloride], for which the minimal effective dose under setting [4] came out at 1 mg/kg. Under setting [5], the AD entry is recorded as “+ (≥4%)”, the AG entry is recorded as “ND (^ <4%)”, the AN entry is reported as “++ (≥24%)” and the AP result is given as “+ (≥4%)”. Further, under setting [5], the AX result is “ND (^ <4%)”, the CE entry is “ND (^ <4%)”, the HL result is “ND (^ <4%)” and the MS result was “ND (^ <4%)”. Further, under setting [5], the PS result is given as “+ (≥4%)”, the SH result is “ND (^ <4%)” and the UK entry is recorded as “+ (≥4%)”.
